Assays:
Format in all cases: in vivo
Details in all cases: alone
[1] = system: Western plant bug, Lygus hesperus; test: Treated bean piece bioassay against third-instar nymphs of Western plant bug
Source text: (§1) The method described in Colby S. R., “Calculating Synergistic and Antagonistic Responses of Herbicide Combinations,” Weeds, 1967, 15, 20-22 was used to determine an existence of synergic effect between the chloride channel activator compound and the pesticide (I), (II), or any agriculturally acceptable salt thereof in the formulated pesticidal composition. In this method, the percent insect control of the formulated pesticidal composition as observed in the study was compared to the “expected” percent control (E) as calculated by equation (1) (hereinafter “Colby's equation”) below: […]
The active compounds were formulated in a 10% acetone solution with 0.025% non-ionic surfactant, TWEEN® 20. Bioassays were performed for each different active solution. Bean pieces (about one inch-long) were used for the tests. Four bean pieces were placed in each tested active solution and left there for 10 minutes. Bean pieces were taken out of the active solution, and each piece was placed in a well in a 32-well tray and allowed to air dry. Three third-instar nymphs of Western plant bug, Lygus hesperus, were infested into each well. The percent control of the pesticidal composition against Lygus hesperus bug was determined as the “Observed” action, and compared to those obtained by using about 0.04 weight % of compound I, and using about 0.20 weight % of emamectin benzoate alone. The “Colby's Expected Action” was calculated using Colby's equation as discussed previously.

[2] = system: diamondback moth, Plutella xylostella; test: Cabbage plant track-sprayer bioassay against second instar diamondback moth
Source text: as §1
Bioassays were performed for different active compounds. Cabbage plants with about two to three new-growth-true leaf stage were treated with different active compounds using a track sprayer application at 400 L/Ha spray volume. Three second instar diamondback moth, Plutella xylostella, were infested onto each leaf disc. The percent control of the pesticidal composition against diamondback moth, Plutella xylostella, was determined as the “Observed” action, and compared to those obtained by using about 0.0025 weight % of compound II, and using about 0.000078 weight % of emamectin benzoate alone. The “Colby's Expected Action” was calculated using Colby's equation as discussed previously.
Bioassays were performed wherein different active compounds were tested against diamondback moth, Plutella xylostella, using the procedure described in example 5A.

[3] = system: South American brown stink bug, Euschistus heros; test: Treated bean piece bioassay against third-instar nymphs of South American brown stink bug
Source text: as §1
The active compounds were formulated in a 10% acetone solution with 0.025% non-ionic surfactant, TWEEN® 20. Bioassays were performed for each different active solution. Bean pieces (about one inch-long) were used for the tests. Four bean pieces were placed in each tested active solution and left there for 10 minutes. […]
The percent control of the pesticidal composition against South American brown stink bug, Euschistus heros, was determined as the “Observed” action, and compared to those obtained by using about 0.04 weight % of compound I, and using about 0.000156 weight % of emamectin benzoate alone. The “Colby's Expected Action” was calculated using Colby's equation as discussed previously.

| Compound | % Control Three Days After Treatment ([1]; dose rate 0.04 weight %) [%] | % Control Three Days After Treatment ([1]; dose rate 0.04 weight %, listed as compound I) | % Control Three Days After Treatment ([2]; dose rate 0.000625 weight %) | % Control Four Days After Treatment ([3]; dose rate 0.04 weight %) [%] | % Control Three Days After Treatment ([1]; dose rate 0.20 weight %) [%] | % Control Three Days After Treatment ([1]; dose rate 0.20 weight %, listed as emamectin benzoate) | % Control Three Days After Treatment ([2]; dose rate 0.000039 weight %) [%] | % Control Three Days After Treatment ([2]; dose rate 0.000078 weight %) [%] | % Control Four Days After Treatment ([3]; dose rate 0.000156 weight %) [%] |
| --- | --- | --- | --- | --- | --- | --- | --- | --- | --- |
| CCN(C(=O)CCSCCC(F)(F)F)c1cn(-c2cccnc2)nc1Cl [Compound I, N-(3-chloro-1-(pyridin-3-yl)-1H-pyrazol-4-yl)-N-ethyl-3-((3,3,3-trifluoropropyl)thio)propanamide] | 0 | no control | no control | 8 |  |  |  |  |  |
| emamectin benzoate |  |  |  |  | 0 | no control | 73.91 | 91.3 | 25 |

Reference: patent US9497967B2, “Synergistic pesticidal compositions and related methods” (Dow AgroSciences LLC, priority 2013, dated 2016)
